Measured values: EP4755886A1 (Chengdu Chipscreen Pharmaceutical Ltd., priority 2023, dated 2025)
Where two headings read alike, the source gives them in different places.

Columns and labels:
[1] = Human liver microsome stability; assay type: in vitro ADME; conditions: pH 7.4; human liver microsomes 0.5 mg/mL, compound 1 µM, NADPH 1 mM, 37 °C
Description: (§1) Experimental materials: human liver microsomes (purchased from BIOIVT);
(§2) PBS: 0.1 M KH2PO4 and K2HPO4 buffers, pH 7.4.
MgCl2: a certain amount of MgCl2 was weighed out and prepared into a 16 mM MgCl2 solution with PBS.
NADPH (Chinese name: reduced nicotinamide adenine dinucleotide phosphate, purchased from Sigma, Cat. No.: 481973-500 mg): a certain amount of NADPH was weighed out and a 4 mM solution of NADPH was prepared with a 16 mM MgCl2 solution, and the final incubation concentration was 1 mM.
Compounds: 4 µM solutions of the test compounds and positive compounds were prepared with PBS, and the final incubation concentration was 1 µM.
Liver microsomes (purchased from BIOIVT, Cat. No.: X008070): the liver microsomes were diluted to […] with PBS, and the final incubation concentration was 0.5 mg/mL.
The prepared test compound or positive compound was added to a test tube, and then the prepared NADPH was added. The mixture was mixed well. The mixture was pre-incubated in a thermostat incubator at 220 rpm at 37 °C for 5 min, and the prepared liver microsomes were added to start the reaction. All steps were performed in replicate wells. At 0 min, 15 min, 30 min, 45 min, and 60 min, a certain volume of glacial acetonitrile solution containing an internal standard was added to the corresponding tube to precipitate the protein. The mixture was vortexed for 5 min with shaking, and then centrifuged at 4000 rpm for 10 min. […] The samples were analyzed by LC-MS/MS.
The concentrations (peak area ratios) of the example compounds were determined by LC-MS/MS. Rate constants were obtained by plotting "Ln (residual amount of compound %)" versus "incubation time" in Excel, thereby calculating the half-lives and intrinsic clearances of the drugs and providing a basis for the prediction of the in-vivo clearance.
[formula] CLH = CLint × fu × Qh /(CLint×fu+Qh) [formula]
Stability in human liver microsomes

[2] = molecular target: T1, hERG (Homo sapiens, UniProt Q12809); assay: hERG test (Predictor hERG Fluorescence Polarization Assay Kit); assay type: binding; conditions: for inhibition at 3.5 h, 10 µM: 10 µM test substance, three duplicate wells; for IC50: only 10 µM tested
T1 construct: purchased ThermoFisher Scientific PV5365
T1 sequence (Q12809 whole entry): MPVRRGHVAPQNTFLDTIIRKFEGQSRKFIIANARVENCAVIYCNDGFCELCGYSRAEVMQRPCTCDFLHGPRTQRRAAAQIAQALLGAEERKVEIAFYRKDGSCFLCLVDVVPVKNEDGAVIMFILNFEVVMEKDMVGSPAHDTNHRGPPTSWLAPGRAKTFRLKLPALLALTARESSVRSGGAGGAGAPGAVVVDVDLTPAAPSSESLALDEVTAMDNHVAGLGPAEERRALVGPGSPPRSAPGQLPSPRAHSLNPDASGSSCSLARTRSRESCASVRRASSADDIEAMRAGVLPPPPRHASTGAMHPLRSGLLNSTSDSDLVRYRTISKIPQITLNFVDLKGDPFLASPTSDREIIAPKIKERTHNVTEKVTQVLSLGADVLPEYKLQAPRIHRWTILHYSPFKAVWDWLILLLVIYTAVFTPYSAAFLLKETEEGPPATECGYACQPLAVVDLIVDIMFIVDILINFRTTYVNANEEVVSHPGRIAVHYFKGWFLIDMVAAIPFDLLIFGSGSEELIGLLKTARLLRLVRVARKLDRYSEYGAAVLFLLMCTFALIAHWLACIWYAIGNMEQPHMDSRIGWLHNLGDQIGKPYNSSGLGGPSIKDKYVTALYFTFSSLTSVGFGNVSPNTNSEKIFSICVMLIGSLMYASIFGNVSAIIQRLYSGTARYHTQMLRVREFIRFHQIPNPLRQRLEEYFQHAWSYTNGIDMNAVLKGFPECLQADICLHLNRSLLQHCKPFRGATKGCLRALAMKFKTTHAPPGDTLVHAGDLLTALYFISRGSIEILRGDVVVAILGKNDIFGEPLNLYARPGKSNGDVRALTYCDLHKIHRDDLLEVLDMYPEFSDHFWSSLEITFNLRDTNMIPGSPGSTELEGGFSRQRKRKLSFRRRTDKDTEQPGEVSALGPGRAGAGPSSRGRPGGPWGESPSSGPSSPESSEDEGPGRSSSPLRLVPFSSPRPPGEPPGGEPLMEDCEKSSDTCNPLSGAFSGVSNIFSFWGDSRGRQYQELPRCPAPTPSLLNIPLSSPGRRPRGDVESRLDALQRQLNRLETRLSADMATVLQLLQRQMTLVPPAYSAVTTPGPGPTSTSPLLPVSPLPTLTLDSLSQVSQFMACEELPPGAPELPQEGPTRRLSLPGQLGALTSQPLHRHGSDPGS
Description: Predictor™ hERG Fluorescence Polarization Assay Kit (ThermoFisher Scientific, PV5365).
The procedures in the kit instructions were followed: 4× Predictor™ hERG Tracer Red, 4× E-4031, and 4× test substance solutions (final assay concentration: 10 µM) were prepared in advance. 5 µL Predictor™ hERG FP Assay Buffer and 5 µL Predictor™ hERG Membrane were added sequentially to the Assay Blank group in a 384-well plate. 2.5 µL Predictor™ hERG FP Assay Buffer, 2.5 µL of 4× E-4031, and 2.5 µL of 4× test substance were added to the negative control group, the positive control group, and the test substance group, respectively, and then 5 µL Predictor™ hERG Membrane and 2.5 µL of 4× Predictor™ hERG Tracer Red were sequentially added. The total volume of the experimental system was 10 µL, and three duplicate wells were set for each group. After loading, the plate was gently tapped to mix well and incubated at room temperature (25 °C) in the dark for 3.5 h. After the incubation was completed, the fluorescence polarization value mP was measured on a microplate reader, and G Factor was 2.14.
The inhibition rate of the test substance was calculated using the following formula: [formula]

[3] = molecular target: T2, CYP450 enzyme 3A4 (Homo sapiens, UniProt P08684); assay: CYP inhibition test in human liver microsomes; assay type: in vitro ADME; conditions: human liver microsomes 0.1 mg/mL
T2 construct: Liver microsomes (purchased from BIOIVT, Cat. No.: X008070); tissue BIOIVT X008070; host or cells: human liver microsomes
T2 sequence (P08684 whole entry): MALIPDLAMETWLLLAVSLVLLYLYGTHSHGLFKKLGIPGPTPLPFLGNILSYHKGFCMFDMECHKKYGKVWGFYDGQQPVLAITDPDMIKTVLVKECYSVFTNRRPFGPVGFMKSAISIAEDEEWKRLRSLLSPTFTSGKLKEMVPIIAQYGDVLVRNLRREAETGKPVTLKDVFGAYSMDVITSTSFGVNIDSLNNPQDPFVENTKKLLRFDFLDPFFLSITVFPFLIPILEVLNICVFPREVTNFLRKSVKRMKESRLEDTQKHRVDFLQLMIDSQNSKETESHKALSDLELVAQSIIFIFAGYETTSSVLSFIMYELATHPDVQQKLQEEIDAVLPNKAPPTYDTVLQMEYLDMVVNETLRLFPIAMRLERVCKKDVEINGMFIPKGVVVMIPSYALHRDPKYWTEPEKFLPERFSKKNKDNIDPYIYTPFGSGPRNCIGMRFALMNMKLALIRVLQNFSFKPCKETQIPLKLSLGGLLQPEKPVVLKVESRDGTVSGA
Description: as §1, §2
MgCl2: a certain amount of MgCl2 was weighed out and prepared into a 20 mM MgCl2 solution with PBS.
NADPH (Chinese name: reduced nicotinamide adenine dinucleotide phosphate, purchased from Sigma, Cat. No.: 481973-500 mg): a certain amount of NADPH was weighed out and a 5 mM solution of NADPH was prepared with a 20 mM MgCl2 solution, and the final incubation concentration was 1 mM.
Compounds: 3 mM, 1 mM, 0.3 mM, 0.1 mM, 0.03 mM, 0.01 mM, and 0 mM solutions of the test compounds were prepared with a DMSO-methanol (v:v = 1:9) solution, and the final incubation concentrations were 30 µM, 10 µM, 3 µM, 1 µM, 0.3 µM, 0.1 µM, and 0 µM. 30 µM, 10 µM, 3 µM, 1 µM, 0.3 µM, and 0 µM solutions of the positive compound (ketoconazole) were prepared with a DMSO-methanol (v:v = 1:9) solution, and the final incubation concentrations were 0.3 µM, 0.1 µM, 0.03 µM, 0.01 µM, 0.003 µM, and 0 µM.
Substrate working solutions: 200 µM and 15 µM solutions of substrate working solutions (testosterone and midazolam) were prepared with PBS, separately, and the final incubation concentrations were 40 µM and 3 µM.
Liver microsomes (purchased from BIOIVT, Cat. No.: X008070): the liver microsomes were diluted to […] with PBS, and the final incubation concentration was 0.1 mg/mL.
The prepared test compounds or positive compounds were added to a 96-well plate, and then the prepared human liver microsome working solution and substrate working solution were added. The mixture was mixed well. The mixture was pre-incubated in a thermostat incubator at 37 °C for 5 min, and then the prepared NADPH was added to start the reaction. The mixture was incubated for 5 min or 10 min. After the incubation was completed, a pre-cooled acetonitrile solution containing an internal standard was added to terminate the reaction. After protein precipitation, the mixture was vortexed for 5 min with shaking and then centrifuged at 4000 rpm for 10 min. The supernatant was collected and added to the 96-well plate. The content (peak concentration ratio) of the metabolites of the substrate was determined by an LC-MS/MS method. The residual activity and the half maximal inhibitory concentration (IC50) of the enzyme were calculated based on the detected content.
Percentage of remaining enzyme activity: The activity of each subtype of CYP450 enzyme was expressed as the amount of metabolite produced, and the percentage of remaining enzyme activity was calculated as follows: [formula]
The concentrations of the test substances and the corresponding residual activity percentages were fitted using a nonlinear model of Excel software, and the concentration of the test substances at which 50% inhibition of metabolite production was achieved was the IC50 value.

[4] = substrate midazolam 3 µM, read-out: IC50 3A4-Midazolam
[5] = substrate testosterone 40 µM, read-out: IC50 3A4-Testosterone
[6] = human, probe Predictor hERG Tracer Red

| half-life at 1 µM [1] | IC50 [3, 4] | IC50 [3, 5] | SMILES | inhibition at 3.5 h, 10 µM ([2]; herg membrane fluorescence polarization) | IC50 [2] | inhibition at 3.5 h, 10 µM [2, 6] |
| --- | --- | --- | --- | --- | --- | --- |
| 2.03 h | > 30 µM | > 30 µM | CN(C(=O)c1cc2c3c(c(N)nc2cc1Cl)COC3)[C@@H]1COc2cc(C#Cc3cnn(C4CC4)c3)ccc21 [Compound 43A, (S)-4-amino-7-chloro-N-(6-((1-cyclopropyl-1H-pyrazol-4-yl)ethynyl)-2,3-dihydrobenzofuran-3-yl)-N-methyl-1,3-dihydrofuro[3,4-c]quinoline-8-carboxamide] | – | > 10 µM | 30.3 ± 29.9% |
| 0.832 h | > 30 µM | > 30 µM | Cc1nn(C)cc1C#Cc1ccc2c(c1)OC[C@H]2N(C)C(=O)c1cc2c3c(c(N)nc2cc1Cl)COC3 [Compound 50A, (S)-4-amino-7-chloro-N-(6-((1,3-dimethyl-1H-pyrazol-4-yl)ethynyl)-2,3-dihydrobenzofuran-3-yl)-N-methyl-1,3-dihydrofuro[3,4-c]quinoline-8-carboxamide] | – | > 10 µM | 22.4% |

| SMILES | half-life at 1 µM [1] | IC50 [3, 4] | IC50 [3, 5] | inhibition at 3.5 h, 10 µM ([2]; herg membrane fluorescence polarization) | IC50 [2] | inhibition at 3.5 h, 10 µM [2, 6] |
| --- | --- | --- | --- | --- | --- | --- |
| CN(C(=O)c1cc2c(cc1F)nc(N)c1cnn(C)c12)[C@@H]1COc2cc(C#Cc3cnn(C)c3)ccc21 [Compound 5A, (S)-4-amino-7-fluoro-N,1-dimethyl-N-(6-((1-methyl-1H-pyrazol-4-yl)ethynyl)-2,3-dihydrobenzofuran-3-yl)-1H-pyrazolo[4,3-c]quinoline-8-carboxamide] | 1.11 h | > 30 µM | > 30 µM | 27.7% | > 10 µM | – |
